Assay: not given

Point of comparison: `CCOC(=O)c1cc2ccccc2[nH]1`, logP 3.18. Against it:
- O=[N+]([O-])c1cccc2cc[nH]c12 — lower, 2.63
- Brc1ccoc1 — lower, 2.18
- COc1ccco1 — lower, 1.44
- O=[N+]([O-])C=Cc1ccco1 — lower, 1.56
- CC(=O)C=Cc1ccco1 — lower, 1.35
- Cc1cccc2cc[nH]c12 — lower, 2.56
- CC(=O)Oc1c[nH]c2ccccc12 — lower, 2.01
- O=Cc1ccoc1 — lower, 0.51
- Clc1cccs1 — lower, 2.54
- CCOc1ccc2cc[nH]c2c1 — lower, 2.53
- O=C(c1c[nH]c2ccccc12)C(F)(F)F — higher, 3.44
- O=CNc1ccc2[nH]ccc2c1 — lower, 1.07
- NCc1ccco1 — lower, 0.37
- COC(=O)c1ccc2[nH]ccc2c1 — lower, 2.58
- Clc1cccc2cc[nH]c12 — within 0.2 log units, 3.25
- NC(=O)c1ccc2[nH]ccc2c1 — lower, 0.87
- NC(=O)c1cccc2[nH]ccc12 — lower, 0.66
- CCOC(=O)c1ccoc1 — lower, 1.78
- N#Cc1ccc2cc[nH]c2c1 — lower, 2.38
- N#Cc1ccc2[nH]ccc2c1 — lower, 2.36
- O=[N+]([O-])/C=C/c1cccs1 — lower, 1.96
- CCOC(=O)c1c[nH]c2ccccc12 — within 0.2 log units, 3.04
- CN(C)C(=O)c1ccco1 — lower, 0.41
- N#Cc1cccc2[nH]ccc12 — lower, 2.46
- O=[N+]([O-])c1ccc2sccc2c1 — lower, 2.92

Assay: method code SF, from DOI: 10.1002/qsar.19890080404

Point of comparison: `O=Cc1ccc[nH]1`, logP 0.64. Against it:
- CCOC(=O)c1c[nH]cc1C — higher, 2.05
- NC(=S)c1cccs1 — higher, 1.34
- O=C(O)c1c[nH]c2ccccc12 — higher, 1.99
- O=Cc1c[nH]c2ccccc12 — higher, 1.69
- CC(=O)c1c[nH]c2ccccc12 — higher, 2.06
- CS(=O)(=O)c1cccs1 — lower, 0.38
- CC(=O)Nc1ccc2[nH]c(C)cc2c1 — higher, 1.22
- N#Cc1ccc[nH]1 — higher, 1.13

Source: the SangsterLogP compilation
